Experimental data taken from patent US20240090503A1, “FUNGICIDAL OXADIAZOLES AND THEIR MIXTURES” (FMC CORPORATION, priority 2020, published 2024).
Marks after values point to notes of the source that are not given here.

What was measured:
Assay type in all cases: in vivo
[1] = test system: Phakopsora pachyrhizi (the causal agent of Asian soybean rust); assay: Test A: preventive spray on soybean seedlings, Asian soybean rust, visual disease rating; details: soybean seedlings
Procedure, shortened: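 Compound in acetone/water (50/50) with 250 ppm PEG400 sprayed to run-off on soybean seedlings; inoculated next day with Phakopsora pachyrhizi spores. Held 24 h at 22° C in saturated atmosphere, then 8 days in a 22° C growth chamber before visual rating as % disease control relative to controls.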

[2] = test system: Zymoseptoria tritici (the causal agent of wheat leaf blotch); assay: Test B: preventive spray on wheat seedlings, wheat leaf blotch, visual disease rating; details: wheat seedlings
Procedure, shortened: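 This is a preventive test: spray application preceded Zymoseptoria tritici spore inoculation by one day. Test suspensions were in acetone/water with 250 ppm PEG400 surfactant, at the listed ppm rate. After 48 h saturated humidity at 24° C and 17 days at 20° C, visual ratings scored control from 0 to 100%.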

[3] = test system: Puccinia recondita f. sp. tritici (the causal agent of wheat leaf rust); assay: Test C: preventive spray on wheat seedlings, wheat leaf rust, visual disease rating; details: wheat seedlings
Procedure, shortened: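 Wheat seedlings sprayed to run-off with compound in acetone/water (50/50) with 250 ppm PEG400, then inoculated with spores the following day. After 24 h saturated humidity at 20° C. and 6 days in growth chamber at 20° C., disease rated visually as % control relative to untreated controls.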

[4] = 250 ppm test suspension, 100 = 100% disease control, 0 = no control
[5] = 250 ppm test suspension, 100 = 100% disease control
[6] = test suspension 10 ppm, 100 = 100% disease control, 0 = no control
[7] = 10 ppm test suspension, 100 = 100% disease control, 0 = no control

## OC(c1ccc(-c2noc(C(F)(F)F)n2)cc1)c1cccc(Cl)c1 (stereo not drawn) [compound 499]
[1]; [4]
  Test A disease control rating: 100%
[2]; [5]
  Test B disease control rating: 48* %
[3]; [4]
  Test C disease control rating: 100%

## FC(F)(F)c1nc(-c2ccc(OCc3nc4ncccc4o3)cc2)no1 [compound 320]
[1]; [6]
  Test A disease control rating: 97%
[2]; test suspension 250 ppm
  Test B disease control rating: 33* %
[3]; test suspension 10 ppm
  Test C disease control rating: 0%

## O=C1N(Cc2ccc(-c3noc(C(F)(F)F)n3)cc2)c2ccccc2C1(F)F [compound 161]
[1]; test suspension 265 ppm
  Test A disease control rating: 100%
[2]; test suspension 265 ppm
  Test B disease control rating: 33%
[3]; test suspension 265 ppm
  Test C disease control rating: 99%

## N#CCNC(=O)c1coc(Cc2ccc(-c3noc(C(F)(F)F)n3)cc2)n1 [compound 258]
[1]; [6]
  Test A disease control rating: 100%
[2]; test suspension 250 ppm
  Test B disease control rating: 99* %
[3]; test suspension 10 ppm
  Test C disease control rating: 99%

## N#Cc1csc(Cc2ccc(-c3noc(C(F)(F)F)n3)cc2)n1 [compound 370]
[1]; test suspension 250 ppm
  Test A disease control rating: 100%
[2]; test suspension 250 ppm
  Test B disease control rating: 98* %
[3]; test suspension 250 ppm
  Test C disease control rating: 100%

## C=C(C)COC(=O)c1cnn(Cc2ccc(-c3noc(C(F)(F)F)n3)cc2)c1 [compound 170]
[1]; [6]
  Test A disease control rating: 100%
[2]; test suspension 100 ppm (** next to rating)
  Test B disease control rating: 97** %
[3]; test suspension 10 ppm
  Test C disease control rating: 100%

## O=C(NCCn1cccn1)c1coc(COc2ccc(-c3noc(C(F)(F)F)n3)cc2)n1 [compound 466]
[1]; [7]
  Test A disease control rating: 100%
[2]; [5]
  Test B disease control rating: 3* %
[3]; [7]
  Test C disease control rating: 55%

## O=C1CCN(Cc2ccc(-c3noc(C(F)(F)F)n3)cc2)CC1 [compound 150]
[1]; test suspension 255 ppm
  Test A disease control rating: 100%
[2]; test suspension 255 ppm
  Test B disease control rating: 19%
[3]; test suspension 255 ppm
  Test C disease control rating: 100%

## CN(C)C(=O)c1cc(COc2ccc(-c3noc(C(F)(F)F)n3)cc2)on1 [compound 314]
[1]; [6]
  Test A disease control rating: 99%
[2]; test suspension 250 ppm
  Test B disease control rating: 86* %
[3]; test suspension 10 ppm
  Test C disease control rating: 0%

## O=C1COCCN1Cc1ccc(-c2noc(C(F)(F)F)n2)s1 [compound 325]
[1]; test suspension 250 ppm
  Test A disease control rating: 100%
[2]; test suspension 250 ppm
  Test B disease control rating: 36* %
[3]; test suspension 250 ppm
  Test C disease control rating: 100%

## COC(=O)c1ccc(Cn2cc(-c3noc(C(F)(F)F)n3)cn2)cc1 [compound 311]
[1]; test suspension 50 ppm
  Test A disease control rating: 0%
[2]; test suspension 250 ppm
  Test B disease control rating: 0* %
[3]; test suspension 50 ppm
  Test C disease control rating: 0%

## CC(C)(C)NN1C(=O)C(Cl)=C(Oc2ccc(-c3noc(C(F)(F)F)n3)cc2)C1=O [compound 357]
[1]; test suspension 250 ppm
  Test A disease control rating: 98%
[2]; test suspension 250 ppm
  Test B disease control rating: 99* %
[3]; test suspension 250 ppm
  Test C disease control rating: 91%

## O=c1cnc2ccccc2n1Cc1ccc(-c2noc(C(F)(F)F)n2)cc1 [Compound 158, 1-[[4-[5-(trifluoromethyl)-1,2,4-oxadiazol-3-yl]phenyl]methyl]-2(1H)-quinoxalinone]
[1]; Phakopsora pachyrhizi, 216 h, test suspension 270 ppm
  pest or weed control at 270 µg/mL: 100%
[2]; Zymoseptoria tritici, 456 h, test suspension 270 ppm
  pest or weed control at 270 µg/mL: 90%
[3]; Puccinia recondita, 168 h, test suspension 270 ppm
  pest or weed control at 270 µg/mL: 100%

## C=CCOC(=O)c1cnn(CCCc2ccc(-c3noc(C(F)(F)F)n3)cc2)c1 [compound 373]
[1]; test suspension 250 ppm
  Test A disease control rating: 100%
[2]; test suspension 250 ppm
  Test B disease control rating: 99* %
[3]; test suspension 250 ppm
  Test C disease control rating: 100%

## O=S1(=O)CCCN1Cc1ccc(-c2noc(C(F)(F)F)n2)s1 [compound 324]
[1]; test suspension 250 ppm
  Test A disease control rating: 100%
[2]; test suspension 250 ppm
  Test B disease control rating: 80* %
[3]; test suspension 250 ppm
  Test C disease control rating: 100%

## O=C(NCCOC(F)(F)F)c1coc(Cc2ccc(-c3noc(C(F)(F)F)n3)cc2)n1 [Compound 401, N-[2-(trifluoromethoxy)ethyl]-2-[[4-[5-(trifluoromethyl)-1,2,4-oxadiazol-3-yl]phenyl]methyl]-4-oxazolecarboxamide]
[1]; Phakopsora pachyrhizi, 216 h, 10 ppm test suspension, 100 = 100% disease control, 0 = no control
  pest or weed control at 10 ppm: 100%
[2]; Zymoseptoria tritici, 456 h, 250 ppm test suspension, 100 = 100% disease control
  pest or weed control at 250 ppm: 77%
[3]; Puccinia recondita, 168 h, 10 ppm test suspension, 100 = 100% disease control, 0 = no control
  pest or weed control at 10 ppm: 99%
